Laboratory results as given in patent EP2706985B1 (Acerus Biopharma Inc., priority 2011, dated 2012).

Test: Example 11 Period 2: multiple-dose pharmacokinetics (free and total testosterone, dihydrotestosterone, estradiol, SHBG)
Settings: multi-dose, PK conclusions

SMILES: C[C@]12CC[C@H]3[C@@H](CCC4=CC(=O)CC[C@@]43C)[C@@H]1CC[C@@H]2O [Testosterone, 17β-Hydroxyandrost-4-en-3-one]
- time to return to baseline: 12 to 15 h
